Patent US8772307B2, “Substituted spiro compounds and their use for producing pain-relief medicaments” (Gruenenthal GmbH, priority 2005, dated 2014)

Legend:
[1] = target: T1, vanilloid receptor (VR1) (Homo sapiens, UniProt Q8NER1); assay: Functional testing on vanilloid receptor (VR1): FLIPR Ca2+ inflow assay in CHO K1 cells stably transfected with the VR1 gene; format: cell-based; conditions: for inhibition at 10 µM: CHO-K1, inhibition compared to 10 μM CP (capsaicin); for activation at 10 µM: CHO-K1, stimulation compared to 10 μM CP (capsaicin)
T1 construct: expressed in transfected cells; host or cells: CHO K1 cells (ECACC), stably transfected
Description: II. Functional Testing Carried Out on the Vanilloid Receptor (VR1)
The agonistic or antagonistic effect of the substances to be tested can also be determined on the vanilloid receptor (VR1) using the following assay. According to this assay, the Ca^2+ inflow is quantified through the channel using a Ca^2+-sensitive dye (type Fluo-4, Molecular Probes Europe BV, Leiden, Netherlands) in a fluorescent imaging plate reader (FLIPR, Molecular Devices, Sunnyvale, USA).
Chinese hamster ovary cells (CHO K1 cells, European Collection of Cell Cultures (ECACC) United Kingdom) were stably transfected with the VR1 gene. For functional testing, these cells were plated out on poly-D-lysine-coated black 96 well plates having a clear base (BD Biosciences, Heidelberg, Germany) at a density of 25,000 cells/well. The cells were incubated overnight at 37° C. and 5% CO2 in a culture medium (Ham's F12 nutrient mixture, 10% by volume of FCS (foetal calf serum), 18 μg/ml L-proline). The next day the cells were incubated with Fluo-4 (Fluo-4 2 μM, 0.01% by volume of Pluronic F127, Molecular Probes in HBSS (Hank's buffered saline solution), Gibco Invitrogen GmbH, Karlsruhe, Germany) for 30 minutes at 37° C. Subsequently, the plates were washed 3 times with HBSS buffer and after further incubation for 15 minutes at room temperature used for Ca^2+ measurement in a FLIPR assay. The Ca^2+-dependent fluorescence was measured before and after the addition of the substances to be tested (λex wavelength=488 nm, λem=540 nm). Quantification was carried out by measuring the highest fluorescence intensity (FC, Fluorescence Counts) over time.
The FLIPR protocol consists of 2 substance additions. First the compounds to be tested (10 μM) were pipetted onto the cells and the Ca^2+ inflow was compared with the control (capsaicin 10 μM) (% activation based on the Ca^2+ signal after the addition of 10 μM capsaicin). After 5 minutes' incubation, 100 nM of capsaicin were administered and the Ca^2+ inflow was also determined.
Desensitising agonists and antagonists led to suppression of the Ca^2+ inflow. The % inhibition was calculated compared to the maximum achievable inhibition with 10 μM of capsaicin.

[2] = target: T2, rat-species vanilloid receptor 1 (VR1/TRPV1) (Rattus norvegicus, UniProt O35433); assay: Functional testing on vanilloid receptor 1 (VR1/TRPV1): FLIPR Ca2+ inflow assay in rat dorsal root ganglia cells (% activation / % inhibition vs capsaicin); format: cell-based; conditions: for inhibition at 10 µM: inhibition compared to 10 μM CP (capsaicin); for activation at 10 µM: stimulation compared to 10 μM CP (capsaicin)
T2 construct: endogenous in cells; host or cells: primary cells dissociated from rat dorsal root ganglia (DRG)
Procedure: Preference may also be given to substituted spiro compounds according to the invention of general formula I which in a FLIPR assay in a concentration of 10 μM display inhibition of the Ca^2+ ion inflow in dorsal root ganglia of rats of at least 30%, preferably of at least 40%, particularly preferably of at least 50%, most particularly preferably of at least 70%, even more preferably of at least 90%, compared to the maximum achievable inhibition of the Ca^2+ ion inflow with capsaicin in a concentration of 10 μM.
In the FLIPR assay, the Ca^2+ inflow is quantified using a Ca^2+-sensitive dye (type Fluo-4, Molecular Probes Europe BV, Leiden, Netherlands) in a fluorescent imaging plate reader (FLIPR, Molecular Devices, Sunnyvale, USA), as described hereinafter.
I. Functional Testing Carried Out on the Vanilloid Receptor 1 (VR1/TRPV1 Receptor)
The agonistic or antagonistic effect of the substances to be tested can be determined on the rat-species vanilloid receptor 1 (VR1/TRPV1) using the following assay. According to this assay, the Ca^2+ inflow is quantified through the receptor channel using a Ca^2+-sensitive dye (type Fluo-4, Molecular Probes Europe BV, Leiden, Netherlands) in a fluorescent imaging plate reader (FLIPR, Molecular Devices, Sunnyvale, USA).
Complete medium: 50 mL HAMS F12 nutrient mixture (Gibco Invitrogen GmbH, Karlsruhe, Germany) with
10% by volume of FCS (foetal calf serum, Gibco Invitrogen GmbH, Karlsruhe, Germany, […]);
2 mM L-glutamine (Sigma, Munich, Germany);
1% by weight of AA solution (antibiotic/antimyotic solution, PAA, Pasching, Austria)
and 25 ng/ml NGF medium (2.5 S, Gibco Invitrogen GmbH, Karlsruhe, Germany)
Cell culture plate: Poly-D-lysine-coated, black 96 well plates having a clear base (96 well black/clear plate, BD Biosciences, Heidelberg, Germany) were additionally coated with laminin (Gibco Invitrogen GmbH, Karlsruhe, Germany), the laminin being diluted with PBS (Ca—Mg-free PBS, Gibco Invitrogen GmbH, Karlsruhe, Germany) to a concentration of 100 μg/mL. Aliquots having a laminin concentration of 100 μg/mL were removed and stored at −20° C. The aliquots were diluted with PBS in a ratio of 1:10 to 10 μg/mL laminin and in each case 50 μL of the solution were pipetted into a recess in the cell culture plate. The cell culture plates were incubated for at least two hours at 37° C., the excess solution was removed by suction-filtration and the recesses were each washed twice with PBS. The coated cell culture plates were stored with excess PBS which was not removed until just before the feeding of the cells.
Preparation of the Cells:
The vertebral column was removed from decapitated rats and placed immediately into cold HBSS buffer (Hank's buffered saline solution, Gibco Invitrogen GmbH, Karlsruhe, Germany), i.e. buffer located in an ice bath, mixed with 1% by volume (percent by volume) of an AA solution (antibiotic/antimyotic solution, PAA, Pasching, Austria). The vertebral column was cut longitudinally and removed together with fasciae from the vertebral canal. Subsequently, the dorsal root ganglia (DRG) were removed and again stored in cold HBSS buffer mixed with 1% by volume of an AA solution. The DRG, from which all blood remnants and spinal nerves had been removed, were transferred in each case to 500 μL of cold type 2 collagenase (PAA, Pasching, Austria) and incubated for 35 minutes at 37° C. After the addition of 2.5% by volume of trypsin (PAA, Pasching, Austria), incubation was continued for 10 minutes at 37° C. After complete incubation, the enzyme solution was carefully pipetted off and 500 μL of complete medium were added to each of the remaining DRG. The DRG were in each case suspended several times, drawn through cannulae No. 1, No. 12 and No. 16 using a syringe and transferred to a 50 mL Falcon tube which was filled up to 15 mL with complete medium. […]

T1 sequence (Q8NER1 whole entry): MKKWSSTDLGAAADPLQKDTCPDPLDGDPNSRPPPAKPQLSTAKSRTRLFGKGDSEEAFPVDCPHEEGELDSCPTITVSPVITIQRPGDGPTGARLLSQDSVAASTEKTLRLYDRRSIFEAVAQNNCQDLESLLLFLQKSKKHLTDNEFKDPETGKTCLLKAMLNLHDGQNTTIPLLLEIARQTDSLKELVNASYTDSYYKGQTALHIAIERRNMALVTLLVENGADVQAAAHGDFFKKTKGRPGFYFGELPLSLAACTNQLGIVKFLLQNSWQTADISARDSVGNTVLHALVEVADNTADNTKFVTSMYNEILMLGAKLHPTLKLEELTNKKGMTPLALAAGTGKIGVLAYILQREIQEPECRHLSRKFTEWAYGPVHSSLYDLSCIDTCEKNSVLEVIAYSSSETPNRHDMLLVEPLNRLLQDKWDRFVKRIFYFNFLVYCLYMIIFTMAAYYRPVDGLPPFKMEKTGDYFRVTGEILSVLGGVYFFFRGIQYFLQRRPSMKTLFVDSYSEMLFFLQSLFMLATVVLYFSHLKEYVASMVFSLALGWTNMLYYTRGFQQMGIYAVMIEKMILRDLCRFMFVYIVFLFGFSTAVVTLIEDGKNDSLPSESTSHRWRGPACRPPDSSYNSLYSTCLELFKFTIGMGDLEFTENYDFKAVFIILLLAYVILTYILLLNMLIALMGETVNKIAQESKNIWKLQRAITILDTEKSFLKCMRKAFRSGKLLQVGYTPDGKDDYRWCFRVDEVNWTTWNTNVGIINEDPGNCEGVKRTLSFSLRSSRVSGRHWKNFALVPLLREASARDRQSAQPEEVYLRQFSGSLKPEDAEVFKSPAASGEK
T2 sequence (O35433 whole entry): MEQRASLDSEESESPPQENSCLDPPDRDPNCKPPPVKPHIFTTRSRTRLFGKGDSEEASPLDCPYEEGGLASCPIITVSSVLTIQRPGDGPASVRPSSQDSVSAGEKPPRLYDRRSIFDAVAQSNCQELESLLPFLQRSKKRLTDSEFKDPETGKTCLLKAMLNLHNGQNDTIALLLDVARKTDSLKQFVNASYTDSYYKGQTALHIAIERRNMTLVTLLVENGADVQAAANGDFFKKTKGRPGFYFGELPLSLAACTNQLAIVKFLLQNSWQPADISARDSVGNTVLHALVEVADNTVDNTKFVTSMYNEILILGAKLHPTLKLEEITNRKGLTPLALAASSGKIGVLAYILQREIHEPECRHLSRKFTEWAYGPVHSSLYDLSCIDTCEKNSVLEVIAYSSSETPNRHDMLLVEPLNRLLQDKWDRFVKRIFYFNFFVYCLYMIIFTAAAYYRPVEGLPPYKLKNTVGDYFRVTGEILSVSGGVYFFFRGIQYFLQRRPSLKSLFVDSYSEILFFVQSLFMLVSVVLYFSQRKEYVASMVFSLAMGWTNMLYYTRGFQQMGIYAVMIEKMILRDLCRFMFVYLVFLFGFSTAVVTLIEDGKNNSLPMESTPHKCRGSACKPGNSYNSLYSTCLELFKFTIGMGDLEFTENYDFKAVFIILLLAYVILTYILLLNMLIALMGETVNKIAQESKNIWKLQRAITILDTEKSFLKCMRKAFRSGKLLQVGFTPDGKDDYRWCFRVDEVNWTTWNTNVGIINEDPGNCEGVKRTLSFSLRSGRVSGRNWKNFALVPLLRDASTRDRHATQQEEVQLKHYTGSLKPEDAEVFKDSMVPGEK

| Structure (SMILES) | inhibition at 10 µM [1] [%] | activation at 10 µM [1] [%] | inhibition at 10 µM [2] [%] | activation at 10 µM [2] [%] |
| --- | --- | --- | --- | --- |
| O=C(Nc1ccccc1)N1CCC2(CC1)CC(c1ccc(Cl)cc1)=NO2 [Compound 3, 3-(4-chlorophenyl)-1-oxa-2,8-diazaspiro[4.5]dec-2-ene-8-carboxylic acid phenylamide] | 13.4 | 0.01 | 43.8 | -0.73 |
| CCCc1ccccc1NC(=O)N1CCC2(CC1)CC(c1ccccc1)=NO2 [Compound 22, 3-phenyl-1-oxa-2,8-diazaspiro[4.5]dec-2-ene-8-carboxylic acid-(2-propylphenyl)amide] | 10.1 | -0.14 | 40.3 | -0.73 |
| COc1cccc(C2=NOC3(CCN(C(=O)Nc4ccc(Cl)cc4)CC3)C2)c1 [Compound 39, 3-(3-methoxyphenyl)-1-oxa-2,8-diazaspiro[4.5]dec-2-ene-8-carboxylic acid-(4-chlorophenyl)amide] | 25 | -0.14 | 74 | 0.11 |
| CC(C)(C)c1ccc(C2=NOC3(CCN(C(=O)Nc4ccc(Cl)cc4)CC3)C2)cc1 [Compound 42, 3-(4-tert-butylphenyl)-1-oxa-2,8-diazaspiro[4.5]dec-2-ene-8-carboxylic acid-(4-chlorophenyl)amide] | 2.57 | -0.22 | 39.9 | -0.73 |
| O=C(Nc1ccc(I)cc1)N1CCC2(CC1)CC(c1ccccc1)=NO2 [Compound 44, 3-phenyl-1-oxa-2,8-diazaspiro[4.5]dec-2-ene-8-carboxylic acid-(4-iodophenyl)amide] | -4.4 | -0.15 | 85.6 | -0.73 |
| CC(C)(C)c1ccc(C2=NOC3(CCN(C(=O)Nc4ccc(I)cc4)CC3)C2)cc1 [Compound 45, 3-(4-tert-butylphenyl)-1-oxa-2,8-diazaspiro[4.5]dec-2-ene-8-carboxylic acid-(4-iodophenyl)amide] | 0.17 | -0.04 | 55.5 | -0.73 |
| COc1ccc(NC(=O)N2CCC3(CC2)CC(c2cccc(OC)c2)=NO3)cc1 [Compound 47, 3-(3-methoxyphenyl)-1-oxa-2,8-diazaspiro[4.5]dec-2-ene-8-carboxylic acid-(4-methoxyphenyl)amide] | 11.4 | 0.01 | 48.3 | 0.92 |
| CSc1ccccc1NC(=O)N1CCC2(CC1)CC(c1ccc(C(C)(C)C)cc1)=NO2 [Compound 56, 3-(4-tert-butylphenyl)-1-oxa-2,8-diazaspiro[4.5]dec-2-ene-8-carboxylic acid-(2-methylsulphanylphenyl)amide] | 16.4 | -0.22 | 47.3 | -0.04 |
| COc1cccc(C2=NOC3(CCN(C(=O)Nc4cccc(SC)c4)CC3)C2)c1 [Compound 59, 3-(3-methoxyphenyl)-1-oxa-2,8-diazaspiro[4.5]dec-2-ene-8-carboxylic acid-(3-methylsulphanylphenyl)amide] | 2.09 | 0.01 | 48.6 | 0.51 |
| COc1cccc(C2=NOC3(CCN(C(=O)Nc4ccc(SC)cc4)CC3)C2)c1 [Compound 65, 3-(3-methoxyphenyl)-1-oxa-2,8-diazaspiro[4.5]dec-2-ene-8-carboxylic acid-(4-methylsulphanylphenyl)amide] | -10.8 | -0.07 | 80.5 | 0.08 |
| CSc1ccc(NC(=O)N2CCC3(CC2)CC(c2ccc(C)cc2)=NO3)cc1 [Compound 69, 3-p-tolyl-1-oxa-2,8-diazaspiro[4.5]dec-2-ene-8-carboxylic acid-(4-methylsulphanylphenyl)amide] | 7.01 | -0.32 | 87.2 | -0.47 |
| COc1cccc(C2=NOC3(CCN(C(=O)Nc4ccc(C(C)C)cc4)CC3)C2)c1 [Compound 77, 3-(3-methoxyphenyl)-1-oxa-2,8-diazaspiro[4.5]dec-2-ene-8-carboxylic acid-(4-isopropylphenyl)amide] | 5.49 | 0.1 | 95.4 | 3.81 |
| CC(C)c1ccc(NC(=O)N2CCC3(CC2)CC(c2ccccc2)=NO3)cc1 [Compound 78, 3-phenyl-1-oxa-2,8-diazaspiro[4.5]dec-2-ene-8-carboxylic acid-(4-isopropylphenyl)amide] | 11.8 | 0.11 | 95 | 0.02 |
| CC(C)c1ccc(NC(=O)N2CCC3(CC2)CC(c2ccc(Cl)cc2)=NO3)cc1 [Compound 79, 3-(4-chlorophenyl)-1-oxa-2,8-diazaspiro[4.5]dec-2-ene-8-carboxylic acid-(4-isopropylphenyl)amide] | -17.6 | -0.35 | 46.5 | 0.38 |
| CC(C)c1ccc(NC(=O)N2CCC3(CC2)CC(c2ccc(C(C)(C)C)cc2)=NO3)cc1 [Compound 80, 3-(4-tert-butylphenyl)-1-oxa-2,8-diazaspiro[4.5]dec-2-ene-8-carboxylic acid-(4-isopropylphenyl)amide] | 3.6 | 0.89 | 62.1 | -0.47 |
| FS(F)(F)(F)(F)c1ccc(NC(=S)N2CCC3(CC2)CC(c2ccccc2)=NO3)cc1 [Compound 330, 3-phenyl-1-oxa-2,8-diazaspiro[4.5]dec-2-ene-8-thiocarboxylic acid-(4-pentafluorosulphanylphenyl)amide] |  |  | 103 | 1 |
